#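 Results reflect a 48-hour exposure of cells in 96-well plates to compound at five concentrations. At the GI50, growth is halved.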 Activity calls are given as the source filed them. Rule as the data show it: active = GI50 up to about 1.1 µM and inactive = higher.
# What was measured:
# Test in all cases: inhibition of tumour cell growth, NCI panel, 48 h
# SF-295 = system: SF-295
# K562 = system: K562
# UACC-62 = system: UACC-62
# A549 = system: A549
# SF-268 = system: SF-268
# SK-MEL-28 = system: SK-MEL-28
# DMS-114 = system: DMS-114
# A498 = system: A498
# RPMI-8226 = system: RPMI-8226
# M19-MEL = system: M19-MEL
# ACHN = system: ACHN
# SK-MEL-5 = system: SK-MEL-5
# NCI-H460 = system: NCI-H460
# SW-620 = system: SW-620
# HCT-116 = system: HCT-116
# Malme-3M = system: Malme-3M
# DLD-1 = system: DLD-1
# OVCAR-8 = system: OVCAR-8
# EKVX = system: EKVX
# SNB-75 = system: SNB-75
# LOX IMVI = system: LOX IMVI
# SN12C = system: SN12C
# TK-10 = system: TK-10
# 786-0 = system: 786-0
# CCRF-CEM = system: CCRF-CEM
# NCI-H23 = system: NCI-H23
# UACC-257 = system: UACC-257
# KM-20L2 = system: KM-20L2
# OVCAR-3 = system: OVCAR-3
# SF-539 = system: SF-539
# UO-31 = system: UO-31
# SK-OV-3 = system: SK-OV-3
# KM12 = system: KM12
# HOP-18 = system: HOP-18
# HCT-15 = system: HCT-15
# NCI-H522 = system: NCI-H522
# OVCAR-4 = system: OVCAR-4
# LXFL 529 = system: LXFL 529
# HT-29 = system: HT-29
# COLO 205 = system: COLO 205
# OVCAR-5 = system: OVCAR-5
# MOLT-4 = system: MOLT-4
# M14 = system: M14
# IGROV-1 = system: IGROV-1
# DMS-273 = system: DMS-273
# HCC 2998 = system: HCC 2998
# SNB-19 = system: SNB-19
# SR = system: SR
# HOP-62 = system: HOP-62
# SNB-78 = system: SNB-78
# CAKI-1 = system: CAKI-1
# HL-60 = system: HL-60
# U-251 = system: U-251
# SK-MEL-2 = system: SK-MEL-2
# NCI-H226 = system: NCI-H226
# RXF 393 = system: RXF 393
# HOP-92 = system: HOP-92
smiles,measurement,setting,value
O=Cc1cc(O)c(O)c(O)c1-c1c(C=O)cc(O)c(O)c1O,GI50,SF-295,> 100 µM (inactive)
same,GI50,K562,67.6 µM (inactive)
same,GI50,UACC-62,> 100 µM (inactive)
same,GI50,A549,> 100 µM (inactive)
same,GI50,SF-268,> 100 µM (inactive)
same,GI50,SK-MEL-28,> 100 µM (inactive)
same,GI50,DMS-114,79.8 µM (inactive)
same,GI50,A498,> 100 µM (inactive)
same,GI50,RPMI-8226,64.3 µM (inactive)
same,GI50,M19-MEL,> 100 µM (inactive)
same,GI50,ACHN,> 100 µM (inactive)
same,GI50,SK-MEL-5,> 100 µM (inactive)
same,GI50,NCI-H460,> 100 µM (inactive)
same,GI50,SW-620,> 100 µM (inactive)
same,GI50,HCT-116,> 100 µM (inactive)
same,GI50,Malme-3M,> 100 µM (inactive)
same,GI50,DLD-1,> 100 µM (inactive)
same,GI50,OVCAR-8,> 100 µM (inactive)
same,GI50,EKVX,> 100 µM (inactive)
same,GI50,SNB-75,> 100 µM (inactive)
same,GI50,LOX IMVI,> 100 µM (inactive)
same,GI50,SN12C,> 100 µM (inactive)
same,GI50,TK-10,> 100 µM (inactive)
same,GI50,786-0,> 100 µM (inactive)
same,GI50,CCRF-CEM,85.7 µM (inactive)
same,GI50,NCI-H23,> 100 µM (inactive)
same,GI50,UACC-257,> 100 µM (inactive)
same,GI50,KM-20L2,> 100 µM (inactive)
same,GI50,OVCAR-3,> 100 µM (inactive)
same,GI50,SF-539,> 100 µM (inactive)
same,GI50,UO-31,> 100 µM (inactive)
same,GI50,SK-OV-3,> 100 µM (inactive)
same,GI50,KM12,> 100 µM (inactive)
same,GI50,HOP-18,> 100 µM (inactive)
same,GI50,HCT-15,> 100 µM
same,GI50,NCI-H522,> 100 µM (inactive)
same,GI50,OVCAR-4,> 100 µM (inactive)
same,GI50,LXFL 529,> 100 µM (inactive)
same,GI50,HT-29,> 100 µM (inactive)
same,GI50,COLO 205,> 100 µM (inactive)
same,GI50,OVCAR-5,> 100 µM (inactive)
same,GI50,MOLT-4,> 100 µM (inactive)
same,GI50,M14,> 100 µM (inactive)
same,GI50,IGROV-1,> 100 µM (inactive)
same,GI50,DMS-273,> 100 µM (inactive)
same,GI50,HCC 2998,> 100 µM (inactive)
same,GI50,SNB-19,> 100 µM (inactive)
same,GI50,SR,82.8 µM (inactive)
same,GI50,HOP-62,> 100 µM (inactive)
same,GI50,SNB-78,> 100 µM (inactive)
same,GI50,CAKI-1,> 100 µM (inactive)
same,GI50,HL-60,> 100 µM (inactive)
same,GI50,U-251,> 100 µM (inactive)
same,GI50,SK-MEL-2,> 100 µM (inactive)
same,GI50,NCI-H226,> 100 µM (inactive)
CCOC(=O)/C(O)=C/c1cc(OC)cc(=O)o1,GI50,SF-295,> 100 µM (inactive)
same,GI50,K562,> 100 µM (inactive)
same,GI50,UACC-62,> 100 µM (inactive)
same,GI50,A549,> 100 µM (inactive)
same,GI50,SF-268,> 100 µM (inactive)
same,GI50,SK-MEL-28,> 100 µM (inactive)
same,GI50,DMS-114,> 100 µM (inactive)
same,GI50,A498,> 100 µM (inactive)
same,GI50,RPMI-8226,> 100 µM (inactive)
same,GI50,M19-MEL,> 100 µM (inactive)
same,GI50,ACHN,> 100 µM (inactive)
same,GI50,SK-MEL-5,> 100 µM (inactive)
same,GI50,NCI-H460,> 100 µM (inactive)
same,GI50,SW-620,> 100 µM (inactive)
same,GI50,HCT-116,> 100 µM (inactive)
same,GI50,Malme-3M,> 100 µM (inactive)
same,GI50,RXF 393,> 100 µM (inactive)
same,GI50,DLD-1,> 100 µM (inactive)
same,GI50,OVCAR-8,> 100 µM (inactive)
same,GI50,EKVX,> 100 µM (inactive)
same,GI50,SNB-75,> 100 µM (inactive)
same,GI50,LOX IMVI,> 100 µM (inactive)
same,GI50,SN12C,> 100 µM (inactive)
same,GI50,TK-10,> 100 µM (inactive)
same,GI50,786-0,> 100 µM (inactive)
same,GI50,CCRF-CEM,> 100 µM (inactive)
same,GI50,NCI-H23,> 100 µM (inactive)
same,GI50,UACC-257,> 100 µM (inactive)
same,GI50,KM-20L2,> 100 µM (inactive)
same,GI50,OVCAR-3,> 100 µM (inactive)
same,GI50,SF-539,> 100 µM (inactive)
same,GI50,UO-31,> 100 µM (inactive)
same,GI50,SK-OV-3,> 100 µM (inactive)
same,GI50,KM12,> 100 µM (inactive)
same,GI50,HOP-18,> 100 µM (inactive)
same,GI50,HCT-15,> 100 µM
same,GI50,HOP-92,> 100 µM (inactive)
same,GI50,NCI-H522,> 100 µM (inactive)
same,GI50,OVCAR-4,> 100 µM (inactive)
same,GI50,LXFL 529,> 100 µM (inactive)
same,GI50,HT-29,> 100 µM (inactive)
same,GI50,COLO 205,> 100 µM (inactive)
same,GI50,OVCAR-5,> 100 µM (inactive)
same,GI50,MOLT-4,> 100 µM (inactive)
same,GI50,M14,> 100 µM (inactive)
same,GI50,IGROV-1,> 100 µM (inactive)
same,GI50,DMS-273,> 100 µM (inactive)
same,GI50,HCC 2998,> 100 µM (inactive)
same,GI50,SNB-19,> 100 µM (inactive)
same,GI50,SNB-78,> 100 µM (inactive)
same,GI50,CAKI-1,> 100 µM (inactive)
same,GI50,HL-60,> 100 µM (inactive)
same,GI50,U-251,> 100 µM (inactive)
same,GI50,SK-MEL-2,> 100 µM (inactive)
same,GI50,NCI-H226,> 100 µM (inactive)
